The target in assay [1] is T1, PRMT5-MEP50 enzyme complex (Homo sapiens, UniProt O14744).
T1 construct: Full-length (FL)-PRMT5-MEP50 enzyme complex (recombinant proteins from baculovirus-transfected Sf21 cells: FL-PRMT5; MW=73837 kDa and FL-MEP50; MW=38614); made in house; host or cells: baculovirus-transfected Sf21 cells
The experiment in a line: PRMT5-MEP50 Enzyme Methylation Assay (Version B). The class given is biochemical. As to the method:
PRMT5-MEP50 Enzyme Methylation Assay (Version B)
PRMT5-MEP50 biochemical assay is a direct measurement of the methylation activity of the enzyme complex on a short peptide substrate derived from the N-terminus of H4 histone. Methylation experiment was performed with recombinant PRMT5-MEP50 protein complex. The assessment of inhibitory effect (EC50) of small molecules was measured by the effectiveness of the compounds to inhibit this reaction.
In this assay, the potency (EC50) of each compound was determined from a twenty-point (1:2 serial dilution; top compound concentration of 100000 nM) titration curve using the following outlined procedure. To each well of a white ProxiPlus 384 well-plate, 100 nL of compound (1% DMSO in final assay volume of 10 μL) was dispensed, followed by the addition of 8 μL of 1× assay buffer (50 mM Bicine pH 8.0, 1 mM DTT, 0.004% Tween20, 0.01% BSA) containing 0.625 nM of Full-length (FL)-PRMT5-MEP50 enzyme complex (recombinant proteins from baculovirus-transfected Sf21 cells: FL-PRMT5; MW=[…] and FL-MEP50; MW=38614). Plates were sealed and placed in a 37° C. humidified chamber for 30 minutes pre-incubation with compounds. Subsequently, each reaction was initiated by the addition of 2 μL 1× assay buffer containing 375 nM biotinylated H4R3 (MeI) peptide, and 75 μM S-(5′-Adenosyl)-L-Methionine Chloride (SAM). The final reaction in each well of 10 μL consists of 0.5 nM PRMT5-MEP50, 75 nM biotinylated-peptide, and 15 μM SAM. Methylation reactions were allowed to proceed for 150 minutes in a sealed plate at 37° C. Reactions were immediately quenched by the addition of 1 μL of 10% formic acid. Plates were then frozen and shipped to SAMDI™ Tech Inc. to determine the percent conversion from […]. Dose-response curves were generated by plotting percent effect (% product conversion; Y-axis) vs. Log 10 compound concentrations (X-axis). EC50 values were determined by non-linear regression according to models for either sigmoidal (4 parameters) or biphasic (7 parameters) dose-response curves.

The target of the next assay is T2, PRMT5 (Homo sapiens, UniProt O14744).
T2 construct: seeded with 4000 MCF-7 cells in 30 μl media; endogenous in cells; host or cells: MCF-7 cells
T2 sequence (O14744 whole entry): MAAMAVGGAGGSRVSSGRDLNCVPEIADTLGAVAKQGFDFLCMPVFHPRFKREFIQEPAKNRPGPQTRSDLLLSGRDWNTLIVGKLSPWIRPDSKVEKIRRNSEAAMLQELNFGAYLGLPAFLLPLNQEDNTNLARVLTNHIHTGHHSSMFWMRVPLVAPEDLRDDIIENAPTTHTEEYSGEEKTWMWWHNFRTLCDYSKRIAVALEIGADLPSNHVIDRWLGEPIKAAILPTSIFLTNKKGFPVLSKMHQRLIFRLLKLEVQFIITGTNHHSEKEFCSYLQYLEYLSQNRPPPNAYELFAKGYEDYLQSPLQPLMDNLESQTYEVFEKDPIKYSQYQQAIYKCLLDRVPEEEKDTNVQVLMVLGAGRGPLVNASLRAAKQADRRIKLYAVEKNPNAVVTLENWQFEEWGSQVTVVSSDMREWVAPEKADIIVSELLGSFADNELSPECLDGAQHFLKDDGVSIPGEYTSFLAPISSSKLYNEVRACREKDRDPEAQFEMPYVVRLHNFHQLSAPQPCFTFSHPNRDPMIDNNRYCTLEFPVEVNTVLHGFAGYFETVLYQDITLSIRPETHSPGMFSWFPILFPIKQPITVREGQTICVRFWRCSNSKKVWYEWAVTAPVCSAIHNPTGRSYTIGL
T2 sequence (Q9BQA1 whole entry partner): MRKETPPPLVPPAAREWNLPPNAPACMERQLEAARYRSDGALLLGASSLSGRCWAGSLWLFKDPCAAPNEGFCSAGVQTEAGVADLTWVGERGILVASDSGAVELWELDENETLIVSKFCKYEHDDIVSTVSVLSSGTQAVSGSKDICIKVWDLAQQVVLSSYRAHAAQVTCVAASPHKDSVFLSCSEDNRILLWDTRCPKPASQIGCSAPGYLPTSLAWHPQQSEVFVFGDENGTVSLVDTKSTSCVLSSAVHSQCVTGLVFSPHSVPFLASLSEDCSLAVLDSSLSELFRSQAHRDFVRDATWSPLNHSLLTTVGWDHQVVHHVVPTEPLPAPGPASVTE
The assay is described as follows: PRMT5 Cell Target Engagement (TE) Assay. The class given is cell-based. As to conditions: MCF-7 cells, treated for 3 days, symmetric dimethylation of arginine (SDMA) by high content imaging. The source says:
PRMT5 Cell Target Engagement (TE) Assay
The PRMT5 TE assay is a biomarker assay for identifying compounds that inhibit symmetric dimethylation of arginine (SDMA) of PRMT5 substrates. The following substrates have been reported for PRMT5: histone H2A and H4 R3, Histone H3 R2, Histone H3 R8, spliceosome Sm proteins, ribosomal protein RPS10, p53, FEN1, nucleoplasmin, nucleolin, EGFR and EBNA. The assay focuses on detecting symmetrically dimethylated nuclear proteins using high content imaging technology. Detection of the expression of symmetrically dimethylated nuclear proteins is through a mixture of primary rabbit monoclonal antibodies to SDMA (CST 13222), which in turn recognized by an Alexafluor 488 dye-conjugated anti-rabbit IgG secondary antibody. The IN Cell Analyzer 2200 or Opera-Phenix measures nuclear Alexafluor 488 fluorescent dye intensity that is directly related to the level of expression of symmetrically dimethylated nuclear proteins at the single cell level. Nuclear AF488 dye intensities are compared to the mean value for DMSO treated cells (MIN) to report percent of inhibition for each compound-treated well.
In this assay, the cell potency (EC50) of each compound was determined from a ten point (1:3 serial dilution; top compound concentration of 10000 nM) titration curve using the following outlined procedure. Each well of a BD falcon collagen coated black/clear bottom 384-well plate was seeded with 4000 MCF-7 cells in 30 μl media and allowed to attach for 5 h. Media is ATCC-formulated Eagle's Minimum Essential Medium, Catalog No. 30-2003. To make the complete growth medium, the following components were added to the base medium: 0.01 mg/mL human recombinant insulin; fetal bovine serum to a final concentration of 10%. Additional 30 μl of media containing 2× compounds were added to each well. Cells were treated for 3 days in 37° C. CO2 incubator. On day 3, cells were fixed with Cytofix, permeabilized with 0.4% Triton-X-100/Cytofix, and washed with D-PBS without Ca/Mg. Cells were blocked with Licor Odessey blocking reagent for 1 h at room temperature, followed by incubation with anti-SDMA (1:1000) antibody at 4° C. overnight. 1° antibody was removed, followed by three washings with DPBS without Ca/Mg and 0.05% Tween20. Hoechst (5 μg/mL), Cell Mask deep stain (1:2000) and Alexa488-conjugated goat anti-rabbit IgG (2 μg/mL) was added for 1 h at room temperature. A final washing step (three washes) was performed before sealing plate for imaging on In Cell Analyzer 2200 or Opera-Phenix. Images from analyzer were uploaded to Columbus (at WP or BOS) for image analysis. IC50 values were determined by 4 parameters robust fit of percent fluorescence units vs. (Log10) compound concentrations.

[2] abbreviates: only one EC50 shown: 4 parameters single site sigmoidal model, 30 min pre-incubation, read-out: Enzyme Methylation Assay Version B (EC50).
[3] abbreviates: first of two EC50s: 7 parameters biphasic model, read-out: Enzyme Methylation Assay Version B (EC50_1).
[4] abbreviates: second of two EC50s: 7 parameters biphasic model, read-out: Enzyme Methylation Assay Version B (EC50_2).

These results are taken from patent US12595248B2, “PRMT5 inhibitors” (Merck Sharp & Dohme LLC, priority 2019, dated 2026).

Read-outs that look alike come from different tables or passages of the source.

T1 sequence (O14744 whole entry): as the sequence (O14744 whole entry) above
T1 sequence (Q9BQA1 whole entry partner): as the sequence (Q9BQA1 whole entry partner) above

With `Cc1ccc2c(c1)CCN([C@@H]1CCN(C(=O)c3ccc(OCC(F)(F)F)nc3)C[C@H]1O)C2` [Example 5, ((3R,4R)-3-hydroxy-4-(6-methyl-3,4-dihydroisoquinolin-2(1H)-yl)piperidin-1-yl)(6-(2,2,2-trifluoroethoxy)pyridin-3-yl)methanone], the EC50 in assay [1] (setting [2]) was 1410 nM; on PRMT5, more than 10000 nM.
On to `O=C(c1ccn(CC(F)(F)F)c(=O)c1)N1CC[C@H](N2CCc3ccccc3C2)[C@@H](O)C1` [Example 31, 4-((3S,4S)-4-(3,4-dihydroisoquinolin-2(1H)-yl)-3-hydroxypiperidine-1-carbonyl)-1-(2,2,2-trifluoroethyl)pyridin-2(1H)-one], for which the EC50 in assay [1] (setting [3]) was approximately 30 nM; in assay [1] (setting [4]) it was 34300 nM; on PRMT5, 405 nM.
Regarding `O=C(c1ccn(CC(F)(F)F)c(=O)c1)N1CC[C@@H](N2CCc3ccccc3C2)[C@H](O)C1` [Example 32, 4-((3R,4R)-4-(3,4-dihydroisoquinolin-2(1H)-yl)-3-hydroxypiperidine-1-carbonyl)-1-(2,2,2-trifluoroethyl)pyridin-2(1H)-one], the EC50 in assay [1] (setting [2]) is 2160 nM; at PRMT5, more than 10000 nM.
Turning to `CCOc1cc(C(=O)N2C3CCC2COC3)ccc1C(=O)N1CC[C@H](N2CCc3ccccc3C2)[C@@H](O)C1` [Example 33], the EC50 in assay [1] (setting [3]) is 23 nM; in assay [1] (setting [4]), 4650 nM; on PRMT5 it was 27 nM.
Turning to `CCOc1cc(C(=O)N2C3CCC2COC3)ccc1C(=O)N1CC[C@@H](N2CCc3ccccc3C2)[C@H](O)C1` [Example 34, (4-(3-oxa-8-azabicyclo[3.2.1]octane-8-carbonyl)-2-ethoxyphenyl)((3R,4R)-4-(3,4-dihydroisoquinolin-2(1H)-yl)-3-hydroxypiperidin-1-yl)methanone], the EC50 in assay [1] (setting [3]) is approximately 38 nM; in assay [1] (setting [4]) it was 20600 nM; on PRMT5 it was 2220 nM.
Turning to `O=C(c1ccc(C(=O)N2C3CCC2COC3)cc1)N1CC[C@H](N2CCc3ccccc3C2)[C@@H](O)C1` [Example 35], the results for the EC50 (in assay [1] (setting [3]); in assay [1] (setting [4]); on PRMT5) were 6.6 nM, 2580 nM and 68 nM, respectively.
For `O=C(c1ccc(C(=O)N2C3CCC2COC3)cc1)N1CC[C@@H](N2CCc3ccccc3C2)[C@H](O)C1` [Example 36, (4-(3-oxa-8-azabicyclo[3.2.1]octane-8-carbonyl)phenyl)((3R,4R)-4-(3,4-dihydroisoquinolin-2(1H)-yl)-3-hydroxypiperidin-1-yl)methanone], the EC50 in assay [1] (setting [3]) was approximately 552 nM; in assay [1] (setting [4]) it was more than 100000 nM; at PRMT5, more than 10000 nM.
`O=C(c1ccc(C(=O)N2C3CCC2COC3)cc1)N1CC[C@H](N2CCc3c(F)cccc3C2)[C@@H](O)C1` [Example 37, (4-(3-oxa-8-azabicyclo[3.2.1]octane-8-carbonyl)phenyl)((3S,4S)-4-(5-fluoro-3,4-dihydroisoquinolin-2(1H)-yl)-3-hydroxypiperidin-1-yl)methanone]: the values for the EC50 (in assay [1] (setting [3]); in assay [1] (setting [4]); at PRMT5) were approximately 87 nM, 28600 nM and 1850 nM, respectively.
In the same order, the values of `O=C(c1ccc(C(=O)N2C3CCC2COC3)cc1)N1CC[C@@H](N2CCc3c(F)cccc3C2)[C@H](O)C1` [Example 38, (4-(3-oxa-8-azabicyclo[3.2.1]octane-8-carbonyl)phenyl)((3R,4R)-4-(5-fluoro-3,4-dihydroisoquinolin-2(1H)-yl)-3-hydroxypiperidin-1-yl)methanone] are approximately 402 nM, more than 100000 nM and more than 10000 nM.
On to `O=C(c1ccc(C(=O)N2C3CCC2COC3)cc1)N1CC[C@H](N2CCc3cc(F)ccc3C2)[C@@H](O)C1` [Example 39, (4-(3-oxa-8-azabicyclo[3.2.1]octane-8-carbonyl)phenyl)((3S,4S)-4-(6-fluoro-3,4-dihydroisoquinolin-2(1H)-yl)-3-hydroxypiperidin-1-yl)methanone], for which the EC50 in assay [1] (setting [3]) was 31200 nM; in assay [1] (setting [4]), more than 100000 nM; at PRMT5, more than 10000 nM.
The like results for `O=C(c1ccc(C(=O)N2C3CCC2COC3)cc1)N1CC[C@@H](N2CCc3cc(F)ccc3C2)[C@H](O)C1` [Example 40, (4-(3-oxa-8-azabicyclo[3.2.1]octane-8-carbonyl)phenyl)((3R,4R)-4-(6-fluoro-3,4-dihydroisoquinolin-2(1H)-yl)-3-hydroxypiperidin-1-yl)methanone] were, in that order, 45100 nM, more than 100000 nM and more than 10000 nM.
On to `O=C(c1ccc(C(=O)N2C3CCC2COC3)cc1)N1CC[C@H](N2CCc3ccc(F)cc3C2)[C@@H](O)C1` [Example 41, (4-(3-oxa-8-azabicyclo[3.2.1]octane-8-carbonyl)phenyl)((3S,4S)-4-(7-fluoro-3,4-dihydroisoquinolin-2(1H)-yl)-3-hydroxypiperidin-1-yl)methanone], for which the figures for the EC50 (in assay [1] (setting [3]); in assay [1] (setting [4]); on PRMT5) were 19 nM, 8110 nM and 1490 nM, respectively.
For the compound `O=C(c1ccc(C(=O)N2C3CCC2COC3)cc1)N1CC[C@@H](N2CCc3ccc(F)cc3C2)[C@H](O)C1` [Example 42], the figures for the EC50 (in assay [1] (setting [3]); in assay [1] (setting [4]); on PRMT5) were 12400 nM, more than 100000 nM and more than 10000 nM, respectively.
In the same order, the values of `O=C(c1ccc(OCC(F)(F)F)nc1)N1CC[C@H](N2CCc3ccccc3C2)[C@@H](O)C1` [Example 43, ((3S,4S)-4-(3,4-dihydroisoquinolin-2(1H)-yl)-3-hydroxypiperidin-1-yl)(6-(2,2,2-trifluoroethoxy)pyridin-3-yl)methanone] are 3.7 nM, 3200 nM and 441 nM.
The like results for `O=C(c1ccc(OCC(F)(F)F)nc1)N1CC[C@@H](N2CCc3ccccc3C2)[C@H](O)C1` [Example 44, ((3R,4R)-4-(3,4-dihydroisoquinolin-2(1H)-yl)-3-hydroxypiperidin-1-yl)(6-(2,2,2-trifluoroethoxy)pyridin-3-yl)methanone] were, in that order, approximately 312 nM, more than 100000 nM and more than 10000 nM.
Regarding `CC(=O)N1CCC(Nc2cc(C(=O)N3CC[C@H](N4CCc5ccccc5C4)[C@@H](O)C3)c(Cl)cn2)CC1` [Example 49, 1-{4-[(5-chloro-4-{[(3S,4S)-4-(3,4-dihydroisoquinolin-2(1H)-yl)-3-hydroxypiperidin-1-yl]carbonyl}pyridin-2-yl)amino]piperidin-1-yl}ethanone], the EC50 in assay [1] (setting [3]) came out at 11 nM; in assay [1] (setting [4]) it was 8910 nM; at PRMT5, 7.8 nM.
